Results published in patent US12173320B2, “Production of red blood cells and platelets from stem cells” (BOSTON MEDICAL CENTER CORPORATION, priority 2012, dated 2024).

Experiments:
iPSC-derived MEPs = assay: Immunophenotyping of MEP lineage specification (CD235, CD71, CD41 FACS); type: cell-based, human; settings: MEPs in feeder-free conditions, continuous FICZ, day 15 to 30 and later
Procedure: Roughly 10^5 cells were collected, spun, and re-suspended in 0.5% BSA in PBS. Samples were incubated for 30 min at ambient temperature with human antibodies including CD41a-FITC (BD 555466), CD235-PE (BD 555570), CD71-FITC (BD 555536), washed and spun at 3300 rpm for 7 min, and re-suspended in 0.5% BSA in PBS with 1 ug/ml Propidium Iodide. Samples were run on a BD FACScalibur using Cellquest Pro software and analyzed via FloJo 8.7. For ploidy analysis, cells were treated with 1.5% NP-40 (Boston Bioproducts P-872) and 62.5 ug/ml Propidium Iodide in PBS immediately before FACScalibur interrogation. For murine bone marrow, samples were first incubated for 5 min at ambient temperature with murine conjugated antibody CD16/32 (BD 553142) before a 30 min incubation with c-Kit-PE (BD 553355), CD41a-FITC (BD 553848), Ter119-PE (BD 553673). For cell viability assays, 2-3×10 ^5 cells were collected, re-suspended in 8.8 ug/ml Hoecsht 33342 in PBS supplemented with 5% FBS. Samples were then incubated in the dark at 37° C. for 15 min, washed, and re-suspended in 1 ug/ml Propidium Iodide in 5% FBS. Samples were run on an LSR-II machine with FACSDiva software and analyzed via FloJo 8.7.
In our previous studies in which we noted exponential expansion of iPSC-derived MEPs (FIG. 3), the AhR-mediated effect that we noted allowed us to culture cells for extended periods of time (>120 days). […]

[1] = test system: red cell-depleted bone marrow from C57BL/6 mice; assay: MEP production in murine bone marrow culture (FACS); type: cell-based, mouse; settings: 0.2 μM FICZ, 3 days, versus vehicle
Procedure: Representative FACS analysis dot plots of red cell depleted C57B6 bone marrow grown for 3 days in +/−0.2 μM FICZ. 1×10^5 cells were initially treated with CD16/32 Fc receptor block, followed by directly conjugated monoclonal antibodies for the designated markers.
Roughly 10^5 cells were collected, spun, and re-suspended in 0.5% BSA in PBS. Samples were incubated for 30 min at ambient temperature with human antibodies including CD41a-FITC (BD 555466), CD235-PE (BD 555570), CD71-FITC (BD 555536), washed and spun at 3300 rpm for 7 min, and re-suspended in 0.5% BSA in PBS with 1 ug/ml Propidium Iodide. Samples were run on a BD FACScalibur using Cellquest Pro software and analyzed via FloJo 8.7. For ploidy analysis, cells were treated with 1.5% NP-40 (Boston Bioproducts P-872) and 62.5 ug/ml Propidium Iodide in PBS immediately before FACScalibur interrogation. For murine bone marrow, samples were first incubated for 5 min at ambient temperature with murine conjugated antibody CD16/32 (BD 553142) before a 30 min incubation with c-Kit-PE (BD 553355), CD41a-FITC (BD 553848), Ter119-PE (BD 553673). For cell viability assays, 2-3×10 ^5 cells were collected, re-suspended in 8.8 ug/ml Hoecsht 33342 in PBS supplemented with 5% FBS. […] Samples were run on an LSR-II machine with FACSDiva software and analyzed via FloJo 8.7. […]

Compound: O=Cc1c2c(cc3c1=Nc1ccccc1-3)=Nc1ccccc1-2 [FICZ, 6-formylindolo[3,2-b]carbazole]
- erythroid specification (CD71 / CD235 expression) (iPSC-derived MEPs): progressive erythroid specification and maturation
- CD41+ Ter119+ MEPs in culture [1]: distinct populations
